Assay [1] concerns IL-8 (Interleukin-8) production. As to the kind of experiment: Glucocorticoid inhibition of IL-1 induced IL-8 production in SW1353 human chondrosarcoma cells. The class given is cell-based. To be noted: 20 ng/ml IL-1 beta, 24 hours after IL-1 addition, ELISA, read-out: IC50, inhibition of IL-8 expression. As for the experimental part:
(§1) This assay, the glucocorticoid inhibition of IL-1 (Interleukin-1) induced MMP-1 (Matrix Metalloproteinase-1) and IL-8 (Interleukin-8) production in human chondrosarcoma cells, is conducted as follows: SW1353 human chondrosarcoma cells (obtained from ATCC) from passage 12 through passage 19 are used in a 96 well format assay. Cells are plated at confluence into 96 well plates in DMEM (Dulbecco's Modified Eagle Medium) with 10% fetal bovine serum and incubated at 37° C., 5% CO2. After 24 hours, serum containing media is removed and replaced with 200 ul/well DMEM containing 1 mg/L insulin, 2 g/L lactalbumin hydrosylate, and 0.5 mg/L ascorbic acid and returned to incubation at 37° C., 5% CO2. […] IL-8 production is assessed using the Quantikine human IL-8 ELISA kit from R&D Systems (D8050) on samples diluted 60-fold in RD5P Calibrator Diluent, following the manufacturer's protocol. The percent of the average IL-1 control is determined for the average of each of the triplicate samples following subtraction of the average signal from untreated cells. IC50's are determined from log linear plots of the percent of control versus the concentration of inhibitor. […] MMP-1 production is assessed via the Bio-Trak MMP-1 ELISA kit from Amersham (RPN2610) on 100 ul of neat sample following the manufacturer's protocol. […]
In general terms: An ELISA detects its analyte on a solid surface through an enzyme-linked reagent.

In assay [2] the test system is MMP-1 (Matrix Metalloproteinase-1) production. Nature of the assay: Glucocorticoid inhibition of IL-1 induced MMP-1 production in SW1353 human chondrosarcoma cells. Format: cell-based. The note with it: 20 ng/ml IL-1 beta, 72 hours after IL-1 addition, ELISA, read-out: IC50, inhibition of MMP1 expression. Here is the method: as §1

Turning to `C[C@@H]1C[C@H]2[C@@H]3CCC4=CC(=O)C=C[C@]4(C)[C@@]3(F)[C@@H](O)C[C@]2(C)[C@@]1(O)C(=O)CO` [Dexamethasone], the concentration for half-maximal inhibition (IC50) in assay [1] and in assay [2] was 5 nM in each case.

Source of the values: patent US20070129410A1, “Octahydrophenanthrene hydrazinde derivatives useful as glucocorticoid receptor modulators” (Pfizer Inc., priority 2003, published 2007).
